Results on six compounds are retold here after patent US7976863B2, “Biomedical devices with antimicrobial coatings” (priority 2002, dated 2011).

Ends that are not written are not given here. Where only a bound is given, the exact number is not on record here.

Assay type in all cases: cell-based
Series [1] has as its system P. aeruginosa 6294. As to conditions: for minimum concentration required to inhibit bacterial growth, P.a 6284: MIC, peptide in solution, 18 hours at 35° C. The protocol:
(§1) To assess the effect of cationic proteins/peptides in solution against bacterial cells, Psudomonas aeruginosa 6294 and Staphylacoccus aureus 31 cells were grown as for 18 hours in Tryptone Soya Broth (TSB) at 35° C. The cells were then harvested by centrifugation and washed twice in phosphate buffered saline (PBS; NaCl 8 g/l; KCl 0.2 g/l; Na2HPO4 1.15 g/l; KH2PO4 0.2 g/l). The cells were then re-suspended to OD 0.1 at 660 nm in PBS. The cationic peptide was serially diluted from 1 mg/ml and dilutions were added to wells in a 96 well microtitre plate or into 5 ml disposable test-tubes. Controls were bacteria without peptides. Bacteria were incubated for 18 hours at 35° C. and turbidity was measured at 660 nm. A lack of turbidity in the test-tube corresponding to the peptide dilution was considered to be the minimum inhibitory concentration (“MIC”).

Series [2] has as its system S. aureus 31. Put plainly: MIC in solution (tube/microtitre turbidity). As to conditions: MIC, peptide in solution, 18 hours at 35° C. The method, then:
as §1

Series [3] concerns sheep red blood cells. Put plainly: Lysis of sheep red blood cells. As to conditions: 37° C. for 4 h, various concentrations. The method, then:
FIG. 1 is a graph showing the % lysis sheep red blood cells relative to water for various peptides.
(§2) For in vitro cytotoxic testing, solutions of L-Melimine were prepared in PBS (500 μg/ml, 250 μg/ml, 125 μg/ml and 62.5 μg/ml). Solutions were then diluted 1:3 in tissue culture media (EMEM) and added to murine L929 cells for 48 hours. Cells are rinsed in saline then harvested using 0.25% trypsin for 3-5 minutes at ambient temperature. 1 ml of saline is then added to cells and trypsin mixture, a 500 μl aliquot is added to 19.5 ml of saline and counted in a coulter counter in triplicate. Results are compared to unperturbed cultures as well as positive (cyotoxic) controls. Results are expressed as percentage of non-viable cells (100-number of cells in sample/number of cells in unperturbed cells×100). In addition, the ability of the peptides to lyze sheep red blood cells was examined. The sheep red blood cells were washed and resuspended in PBS. Peptides at various concentrations were added to the red blood cells and incubated at 37° C. for 4 h. 100% lysis was obtained using distilled water and 0% lysis was obtained using PBS. Lysis was measured by measuring the amount of haemoglobin released into the PBS after centrifugation to remove whole red blood cells.

For series [4], the system named is S. aureus CK5. Put plainly: Viable counts of bacteria adhered to peptide-adsorbed Etafilcon A lenses. As to conditions: 500 μg/lens adsorbed on Etafilcon A lens, vs uncoated control lens. The method, then: (§3) For conducting viable counts, Etafilcon A lenses were removed from the manufacturers vials, washed three times in 1 ml PBS, dried and then coated by pipetting 500 μg L-Melimine onto the contact lenses (melimine was dissolved in […] and air dried onto contact lenses) overnight at ambient temperature in a fume hood. Lenses were rehydrated in PBS for 10 minutes and 0.5 ml of 1×10^8 bacterial cells/ml, including gram-positive S. aureus and gram-negative P. aeruginosa were added to the lenses. After incubation at ambient temperature for either 10 min or 5 hours, the lenses were washed three times in PBS to remove non-adherent or loosely adherent bacteria. Lenses were then homogenized using tissue homogenizer and 1 ml PBS until lens disintegration (about 1-2 minutes). Serial dilutions were then made according to the technique of Miles and Misra and aliquots (20 μL) plated out on nutrient agar. After incubation overnight at 37° C., viable bacteria were determined and results expressed as colony forming units/mm^2 after calculation of the surface area of the lens (approximately 310 mm^2). The effects are calculated based upon comparison to adhesion control lens that was not coated with cationic protein/peptide before bacterial adhesion testing.
(§4) Stock solutions (50 mg/ml) were prepared containing the L-Protattin in distilled water. 500 μg of the stock solution was adsorbed to a contact lens made from Etafilcon A as for L-melamine in Example 2 for 18 hours at ambient temperature in a fume hood. The subsequent experimental details are as described in Example 2, above and viable bacteria was measured.

Series [5] deals with P. aeruginosa 15442. The description is as above. As to conditions: 500 μg/lens adsorbed on Etafilcon A lens, vs uncoated control lens. The method, then: as §3, §4
Series [6] relates to S. aureus CK5. Nature of the series: MIC in solution (tube/microtitre turbidity). As to conditions: MIC, peptide in solution, 18 hours at 35° C.
Series [7] has as its system S. aureus 31. Put plainly: Viable counts of bacteria adhered to peptide-adsorbed Etafilcon A lenses. As to conditions: 500 μg/lens adsorbed on Etafilcon lens, vs uncoated control lens. The protocol:
as §3
(§5) Etafilcon lenses, commercially available from Johnson & Johnson as ACUVUE® Brand contact lenses) were soaked as in Example 2, above, except that the L-melimine concentration was varied: 125 μg, 250 μg or 500 μg/lens. After absorption of L-Melimine onto the hydrogel polymer, the lenses were rehydrated with PBS, and exposed to S. aureus or P. saeruginosa for either 10 minutes or five hours, as described in Example 2. After exposure, the polymer was evaluated for numbers of microorganisms the standard Miles and Misra plate count assay.
as §4
(§6) Contact lenses were coated and dried (as in Example 2) and D-Melimine applied at a concentration of either 250 μg per lens or 500 μg per lens. D-melimine was made using D-amino acids as for L-melimine using standard peptide synthesis techniques (e.g. Fmoc). Assays for measuring inhibition of bacterial adhesion were performed as in Example 2.

Series [8] relates to P. aeruginosa 6294. The description is as above. As to conditions: 500 μg/lens adsorbed on Etafilcon lens, vs uncoated control lens. The method, then: as §3, §5, §4, §6
The subject of series [9] is P. aeruginosa 15442. Nature of the series: MIC in solution (tube/microtitre turbidity). As to conditions: MIC, peptide in solution, 18 hours at 35° C.
Series [10] relates to S. aureus 31. Nature of the series: Heat stability study: inhibition of growth in solution after autoclaving. As to conditions: 1000 μg/ml in PBS mixed with equal volume of bacteria. The protocol:
(§7) A heat stability study was conducted to evaluate whether post-exposure of the L-Melimine to autoclaving would alter the ability of the peptide to prevent bacterial growth.
(§8) Bacteria (P. aeruginosa 6294 and S. aureus 31) were grown for 18 hours at 35° C. in TSB, then washed twice in PBS. The bacteria were resuspended in PBS to an optical density of 0.1 at 660 nm. L-Melimine was dissolved in PBS to a concentration of 1000 μg/ml and autoclaved at 121° C. for 15 minutes. Equal volumes of bacterial suspension and L-Melimine were then added together and incubated at 35° C. for periods of up to 72 hours. Controls were non-autoclaved L-Melimine. After 24, 48 and 72 hours, aliquots of the bacteria/L-Melimine solutions were removed and the number of viable bacteria were counted using the standard Miles and Misra plate count assay.

Series [11] deals with P. aeruginosa 6294. Described as above. As to conditions: 1000 μg/ml in PBS mixed with equal volume of bacteria. The protocol:
as §7, §8

In series [12] the test system is murine L929 cells. Put plainly: In vitro cytotoxic testing. As to conditions: for % cell inhibition: 48 hours. The protocol: as §2
Series [13] has as its system P. aeruginosa. The method, then: as §1
(§9) L-Melimine was evaluated to determine its potential to induce resistance in P. aeruginosa and S. aureus. Prior to L-Melimine exposure, MICs of both strains were determined as in Example 1. […] Bacteria were grown overnight in TSB. Bacteria were inoculated 1:100 into fresh TSB containing sub-inhibitory levels of L-Melimine and incubated overnight. Bacteria from the broth containing sub-inhibitory levels (column 2, Table 9) were then re-incubated in fresh TSB with the same concentration of L-Melimine. This was repeated for 30 consecutive days. After passaging, a MIC for the bacteria from the last passage was determined. Any increase in MIC would indicate a potential for bacteria to become resistant.

Series [14] concerns S. aureus. The method, then:
as §1, §9

The mark [15] stands for this setting: Autoclaved at 121° C. for 15 minutes.
[16] abbreviates: Treatment None (non-autoclaved).

For `CC[C@H](C)[C@H](NC(=O)CN)C(=O)NCC(=O)N[C@@H](C)C(=O)N[C@H](C(=O)N[C@@H](CC(C)C)C(=O)N[C@@H](CCCCN)C(=O)N[C@H](C(=O)N[C@@H](CC(C)C)C(=O)N[C@H](C(=O)N[C@H](C(=O)NCC(=O)N[C@@H](CC(C)C)C(=O)N1CCC[C@H]1C(=O)N[C@@H](C)C(=O)N[C@@H](CC(C)C)C(=O)N[C@H](C(=O)N[C@@H](CO)C(=O)N[C@@H](Cc1c[nH]c2ccccc12)C(=O)N[C@H](C(=O)N[C@@H](CCCCN)C(=O)N[C@@H](CCCNC(=N)N)C(=O)N[C@@H](CCCCN)C(=O)N[C@@H](CCCNC(=N)N)C(=O)N[C@@H](CCC(N)=O)C(=O)N[C@@H](CCC(N)=O)C(N)=O)[C@@H](C)CC)[C@@H](C)CC)[C@@H](C)O)[C@@H](C)O)C(C)C)C(C)C` [Mellitin], the “minimum concentration required to inhibit bacterial growth, P.a 6284” value in series [1] was “R (R = resistant, highest concentration of peptide = 1000 ug/Ml)”. In series [2], the “minimum concentration required to inhibit bacterial growth, S.a. 31” value worked out at 15 µg/mL. In addition, in [3], the “hemolysis of red blood cells (FIG. 1, % lysis relative to water)” value is listed as “extensive hemolysis”.

For the compound “PRRRRSSSRPVRRRRRPRVSRRRRRRGGRRRR [Protamine, full-length protamine comparison]”, the “minimum concentration required to inhibit bacterial growth, P.a 6284” value in [1] is “R (R = resistant, highest concentration of peptide = 1000 ug/Ml)”. For the same compound, in series [2], the “minimum concentration required to inhibit bacterial growth, S.a. 31” value is “R (R = resistant, highest concentration of peptide = 1000 ug/Ml)”.

With “RPRVSRRRRRRGGRRRRTLISWIKNKRKQ (RPRVSRRRRRRGGRRRRTLISWIKNKRKQ) [Prottatin]”, the “% reduction at 10 min” value is reported as 6 ± 62 (7) % in series [4], 94 ± 4 (8) % in series [5], 64 ± 18 (6) % in series [7] and 97 ± 5 (6) % in series [8]. The “% reduction at 5 hrs” value in [4] is recorded as 3 ± 25 (7) %; in series [5], 63 ± 32 (7) %; in series [7], 43 ± 33 (6) %; in series [8] it was 57 ± 39 (6) %. The “minimum concentration required to inhibit bacterial growth, P.a 6284” value in [1] is 500 µg/mL. For the same compound, the “minimum concentration required to inhibit bacterial growth, S.a. CK5” value in series [6] turned out to be 500 µg/mL. For the same compound, the “minimum concentration required to inhibit bacterial growth, P.a 15442” value in [9] was determined as 1000 µg/mL. For the same compound, in [2], the “minimum concentration required to inhibit bacterial growth, S.a. 31” value came out at 1000 µg/mL.

Take “RPRVSRRRRRRGGRRRR [Protamine (1-17), 1-17 segment of protamine, segment B]”: the “minimum concentration required to inhibit bacterial growth, P.a 6284” value in [1] is “R (R = resistant, highest concentration of peptide = 1000 ug/Ml)”. For the same compound, the “minimum concentration required to inhibit bacterial growth, S.a. CK5” value in series [6] was found to be 1000 µg/mL. Besides, in [9], the “minimum concentration required to inhibit bacterial growth, P.a 15442” value is listed as “R (R = resistant, highest concentration of peptide = 1000 ug/Ml)”. In [2], the “minimum concentration required to inhibit bacterial growth, S.a. 31” value is on record as “R (R = resistant, highest concentration of peptide = 1000 ug/Ml)”.

As for “TLISWIKNKRKQ [Mellitin (15-26), 15-26 segment of mellitin, segment A]”, the “minimum concentration required to inhibit bacterial growth, P.a 6284” value in series [1] is recorded as “R (R = resistant, highest concentration of peptide = 1000 ug/Ml)”. The “minimum concentration required to inhibit bacterial growth, S.a. CK5” value in series [6] is “R (R = resistant, highest concentration of peptide = 1000 ug/Ml)”. For the same compound, in [9], the “minimum concentration required to inhibit bacterial growth, P.a 15442” value is listed as “R (R = resistant, highest concentration of peptide = 1000 ug/Ml)”. Further, in series [2], the “minimum concentration required to inhibit bacterial growth, S.a. 31” value was “R (R = resistant, highest concentration of peptide = 1000 ug/Ml)”.

Take “TLISWIKNKRKQRPRVSRRRRRRGGRRRR [Melimine, TLISWIKNKRKQRPRVSRRRRRRGGRRRR]”: in series [1] (text summary of Table 1, highest concentration used), the “MIC, P. aeruginosa resistant up to” value is greater than 1000 µg/mL. For the same compound, the “% inhibition of growth @ 24 hours” value in series [10] (setting [15]) is listed as 100 (3) %; in [10] (setting [16]) it was 100 (5) %; in series [11] (setting [15]) it was 100 (3) %; in series [11] (setting [16]), 100 (5) %. Further, the “% inhibition of growth @ 48 hours” value in series [10] (setting [15]), in series [10] (setting [16]), in [11] (setting [15]) and in [11] (setting [16]) was 100 (3) % in each case. Besides, the “% inhibition of growth @ 72 hours” value in [10] (setting [15]) is listed as 99 (2) %; in [10] (setting [16]), 99 (2) %; in series [11] (setting [15]) it was 100 (2) %; in series [11] (setting [16]), 100 (2) %. Also, the “% cell inhibition” value in series [12] (62.5 μg/ml solution in PBS diluted 1:3 in EMEM) is reported as 20%; in series [12] (125 μg/ml solution in PBS diluted 1:3 in EMEM) it was 8%; in [12] (250 μg/ml solution in PBS diluted 1:3 in EMEM) it was 26%; in [12] (500 μg/ml solution in PBS diluted 1:3 in EMEM) it was 44%. The “cytotoxicity (in words)” value in series [12] (at 500 μg/ml) is recorded as “marginally cytotoxic”; in series [12] (at all other concentrations (250, 125, 62.5 μg/ml)) it was “non-cytotoxic”. Further, the MIC post-passage in series [13] (after 30 consecutive days passage) turned out to be 4 mg/mL; in series [14] (after 30 consecutive days passage at 30 μg/ml), 63 µg/mL. The “MIC prior to passage” value in [13] (starting concentration raised to 15 mg/ml, procedure of Example 1) came out at 4 mg/mL; in series [14] (procedure of Example 1), 125 µg/mL. Further, the “hemolysis of red blood cells (FIG. 1, % lysis relative to water)” value in series [3] was “least amount of hemolysis of any peptide/protein”.
